Columns and labels:
Conditions in all cases: mouse, in vivo
[1] = system: iNOS; design: species or system mice
[2] = system: mice challenged with topical nitrogen mustard (NM)
[3] = system: NM-challenged skin; design: species or system mice
[4] = system: skin exposed to nitrogen mustard (NM); design: species or system C57Bl/6 mice

Row | SMILES | iNOS levels (relative iNOS gene expression) [1] | lesion area at day 5 [2] | lesion size [2] | systemic toxicity [2] | inflammatory cells in skin [3] | skin thickness [3] | skin thickness by bi-fold caliper measurements [4]
1 | C=C1CC[C@H](O)C/C1=C/C=C1\CCC[C@]2(C)[C@@H]([C@H](C)CCCC(C)(C)O)CC[C@@H]12 [25(OH)D, 25-hydroxyvitamin D3] | responded | – | – | – | – | – | –
2 | CC(=O)S[C@@H]1CC2=CC(=O)CC[C@]2(C)[C@H]2CC[C@@]3(C)[C@@H](CC[C@@]34CCC(=O)O4)[C@H]12 [spironolactone] | – | reduce lesion area | dose dependent reduction | sustained systemic toxicity | significant reduction | decrease in thickness | showed efficacy in reducing skin thickness

— US20220362273A1 (priority 2021, published 2022)
